This note sets out measurements from PubChem BioAssay AID1632 (University of Pittsburgh Molecular Library Screening Center, 2009).

Records with an inconclusive call do not appear.

In one assay the target is hexokinase 1 [Trypanosoma brucei]. Description: T. brucei hexokinase 1 inhibitor potency, dose response, biochemical, IC50 (AID 1632). To be noted: recombinant TbHK1 enzyme assay, absorbance read-out.
For `O=[N+]([O-])c1cc(/C=N\Nc2nccs2)ccc1O`, the 50% inhibitory concentration (IC50) (in general, the concentration at which inhibition is half-maximal) was 2690 nM.

Still in this assay, the particulars now being: recombinant TbHK1 enzyme assay, absorbance read-out; inhibition; at 100 µM; stronger effect = higher value.
Turning to `CCCCc1ccc(/C=C2/C(=O)ON=C2c2ccccc2)s1`, the inhibition (as a rule, the relative decrease from the control value, in per cent) came out at 32.1%. Same read-out and setting: under `COc1ccc(C(=O)Nc2cc(Cl)ccc2C(=O)O)cc1` stands 75.7%.

`Cc1ccccc1-n1sc2cc(F)ccc2c1=O`: the inhibition worked out at 87.8%. Same read-out and setting: in the case of `Cc1ccc(CNC(=O)CCS(=O)(=O)c2ccc(Br)cc2)cc1` it was 82.3%; in that of `C/C(=C/CCC(C)[C@H]1CC[C@@]2(C)C3=C(CC[C@]12C)[C@@]1(C)CCC(=O)C(C)(C)[C@@H]1CC3)C(=O)O` (some centres undefined), 55.3%; in that of `COC(=O)c1ccccc1NC(=O)CCS(=O)(=O)c1ccc(Br)cc1`, 71.7%.

On to `CCOC(=O)Cc1csc(-n2sc3ccccc3c2=O)n1`, for which the inhibition amounted to 46.9%. As to `O=[N+]([O-])c1cc(/C=N\Nc2nccs2)ccc1O`, the inhibition is 33.3%. For the molecule `O=c1c2ccccc2sn1-c1ccccc1`, the inhibition came to 22.3%. On the same count and under the same terms, in the case of `CCCCCCCCCCCNC(=O)c1ccoc1C` it was 73.4%; in that of `O=C(Cn1sc2ccccc2c1=O)NC12CC3CC(CC(C3)C1)C2`, 74.6%. The same measure, in the same setting: in the case of `COc1cc(/C=C(\C#N)c2nc3c(s2)CCCC3)ccc1O` it was 42.4%; in that of `O=C(O)CCCCC1CCSS1` (centres undefined), 96.4%.
